The results in this text go back to patent US20250122581A1, “TUMOR AND METASTASIZING MARKER” (UNIVERSITAET ZU KOELN, priority 2017, published 2025).

One experiment concerns Vimentin 3. The experiment in a line: Cell culture experiments after ET-1 treatment, Western blot. Type of experiment: cell-based. The settings on record: cell culture (DU145). The method, then: Furthermore, cell culture experiments were conducted after ET-1 treatment over different time points and analyzed via Western blot the expression of the different proteins mentioned above. For the ET-1 ELISA and Vim3 ELISA 100 μl of serum was used. DU145 cells were cultured under normal conditions and treated with the substances mentioned. Cells were scratched before treatment. The ET-receptors were blocked 1 h before ET-1 stimulation. Immunofluorescence was performed on paraffin-embedded prostate cancer samples. This immunofluorescence has been carried out as described in Example 1 above. In addition to Vim3-specific antibodies, also Atg7- and pg3-specific primary antibodies have been used.
(In general: Immunoblotting shows a protein as a band on a membrane.)

Experiment [1] relates to Vim3. The experiment in a line: Vim3 expression analysis by qRT-PCR in treated MX-1 cells. It counts as cell-based. Particulars: combinational stimulation with Tam. In general terms: Real-time PCR tracks product formation cycle by cycle.
Description: MCF-7 cells were cultured under normal conditions and treated with the mentioned substances. Tamoxifen treatment was performed 1 hour prior ET-1 or β-estradiol treatment. […] From cells after treatment, the mRNA was isolated and qRT-PCR was performed.
Experiment [2] has as its system Vim3. The experiment in a line: Vim3 expression analysis by qRT-PCR in treated MCF-7 cells. Particulars: combined pretreatment with tamoxifen and β-estradiol/ET-1, p<0.01. It counts as cell-based. The source says: FIG. 25A-FIG. 25C show Vim3 expression analysis of treated MX-1 (FIG. 25A; FIG. 25B) and MCF-7 (FIG. 25C) cells by qRT-PCR analysis. […] In both diagrams the increase in Vim3 expression up to ca 700 RFU upon a combinational stimulation with Tam is decisive. Data shown is derived from quadruplicates from an independent experiment. *P<0.05, **P<0.01 and ***P<0.001.
(§1) The dependency of the overexpression of Vim3 due to ET-1 presence and after tamoxifen treatment was shown in cell culture experiments and analyzed via Western blot. The expression of Vim3and ET-1 was analyzed in paraffin-embedded tissue samples of patients with metastatic breast cancers after tamoxifen treatment. MCF-7 cells were cultured under normal conditions and treated with the mentioned substances. Tamoxifen treatment was performed 1 hour prior ET-1 or β-estradiol treatment. Nuclear extracts were isolated and analyzed via Western blot under standard conditions. A Proximity Ligation Assay (PLA) assay was performed according to the manufacturer's protocol. From cells after treatment, the mRNA was isolated and qRT-PCR was performed. Immunohistochemistry was performed according to standardized conditions.

Experiment [3] relates to Vim3. Nature of the experiment: Western blot with densitometry of Vim3 in total cell extract of stimulated MCF-7. Type of experiment: cell-based. The settings on record: combined Tam plus ET-1 pretreatment versus ET-1 alone, p<0.001. The protocol: WB with 20 μg non-precipitated total cell extract of stimulated MCF-7. The corresponding densitometric analysis of the present bands of a protein analysis on the WB membrane where the intense band of Vim3 (47 kDa) is striking as compared to the very faint band of GAPDH in the same sample is shown with ImageJ, where the background and the control had been subtracted.
Furthermore, the effect of Tam was studied with regard to its translational capacity for Vim3 after a combined Tam plus ET-1 pretreatment versus ET-1 alone. […] Tam upregulates Vim3.

The next experiment relates to ET-1. The experiment in a line: Western blot of nuclear extracts of treated MCF-7 breast cancer cells. The settings on record: nuclear extracts from breast cancer cells after Tamoxifen treatment. It counts as cell-based. The protocol: as §1
The test system of experiment [4] is Vim3. The experiment in a line: Immunohistochemistry of Vim3 in breast cancer specimens and metastases after tamoxifen treatment. Type of experiment: in vivo, human. The protocol:
as §1
Vim3 Expression in Invasive Ductal Breast Carcinoma, and Its Metastases From the pre-evaluation of breast cancer specimen via tissue-microarray it was known that ET-1 and Vim3 staining could be detected in tumor cells, while vimentin full length was only positive in the interstitial tissue. To analyze the expression of the newly described target gene Vim3 in more detail, its expression was investigated in […] biopsies and their respective resection specimens of breast cancer cases. […] In each biopsy, Vim3 was detected, either in nuclear (20/25; strong expression: 3+) and/or diffuse cytoplasmic (25/25) localization. After Tam treatment, seventeen respective resection specimens were still diffusely positive for Vim3, now mainly in a cytoplasmic localization (12/17), with nuclear localization additionally found in 5 specimens (5/17). In 4 cases, lymph node but no other metastases were reported (4/28). In contrast, 7 cases developed organ metastases (7/28), of which 3 had additional lymph node metastases.
The expression of Vim3 and ERB was investigated in resection specimens and their metastases. In a set of 8 cases positive for ERa after tam pretreatment, it was found again a diffuse cytoplasmic expression of Vim3. In addition, in […] metastases (pleura 2×, skin 2×, bone 3×, uterus 1×, liver 1×, soft tissue 1x) Vim3 was also expressed (cytoplasm: 12/12; additional nuclear expression 5/12). In 7 of the 12 metastases, a 3+ nuclear expression for ERB was found, which was in all investigated cases accompanied by Vim3 expression.

Where [5] appears, read: breast cancer resection specimens, positive/total.

For the compound `CC[C@H](C)[C@H](NC(=O)[C@H](CC(=O)O)NC(=O)[C@H](CC(C)C)NC(=O)[C@H](Cc1c[nH]cn1)NC(=O)[C@@H]1CSSC[C@H](N)C(=O)N[C@@H](CO)C(=O)N[C@H]2CSSC[C@H](NC(=O)[C@H](CCC(=O)O)NC(=O)[C@H](CCCCN)NC(=O)[C@H](CC(=O)O)NC(=O)[C@H](CCSC)NC(=O)[C@H](CC(C)C)NC(=O)[C@H](CO)NC(=O)[C@H](CO)NC2=O)C(=O)N[C@@H](C(C)C)C(=O)N[C@@H](Cc2ccc(O)cc2)C(=O)N[C@@H](Cc2ccccc2)C(=O)N1)C(=O)N[C@H](C(=O)N[C@@H](Cc1c[nH]c2ccccc12)C(=O)O)[C@@H](C)CC` [ET-1, Endothelin-1], the “Vimentin 3 production after ET-1 treatment” value with Vimentin 3 was “produce more Vimentin 3”.

Consider `CC/C(=C(\c1ccccc1)c1ccc(OCCN(C)C)cc1)c1ccccc1` [tamoxifen], for which the “Vim3 expression (qRT-PCR)” value in the experiment on Vim3 [1] is on record as roughly 700 RFU. The “mRNA Vim3 expression” value in the experiment with Vim3 [2] is listed as “clear increase in mRNA Vim3 expression”. The “formation of Vim3 protein (Western blot densitometry)” value in the experiment on Vim3 [3] was “highly statistically significant induced formation of Vim3”. Besides, the “ET-1 signal in the nuclear fraction” value is listed as “ET-1 expression is triggered” in the experiment on ET-1 and “significant upregulation of the ET-1 signal in the nuclear fraction” in the experiment on ET-1 (listed as Tamoxifen). Also, the “mastectomies with cytoplasmic Vim3 staining after Tam” value with Vim3 [4] (biopsies before Tam: nuclear positivity 19/21) was 13/17. Further, the “resection specimens with additional nuclear Vim3 localization after Tam treatment” value in the experiment on Vim3 [4] (setting [5]) was 5/17. In the experiment with Vim3 [4] (setting [5]), the “resection specimens with cytoplasmic Vim3 localization after Tam treatment” value is given as 12/17. Moreover, in the experiment with Vim3 [4] (patients with metastatic breast cancers after tamoxifen treatment), the “Vim3 level in tamoxifen-treated tumors and metastases” value is on record as “an increase of Vim3 was found in both, the tumor as well as the metastases”.
